Experimental data from patent US6319702A, “Nucleic acids encoding mutant human carboxypeptidase A enzymes” (Glaxo Wellcome, Inc., priority 1993, dated 2001).
Like-named read-outs stand apart in the source and are kept apart here.

Assay: Stability and biodistribution of prodrugs in vivo (HPLC of plasma and tissues)
Design: species or system mice (CD-1 nude; BALB/C where indicated)
Conditions: 50 mg/kg i.p. or i.v., CD-1 nude mice; for remaining at 0.5 h / remaining at 2 h / concentration at 0.5 h / concentration at 2 h: mouse, 50 mg/kg; for concentration at 0.5 h / concentration at 2 h: read-out: concentration of prodrug in plasma
[1] = cecum, CECUM, 30 min, read-out: stability: percentage of material observed as intact prodrug, cecum
[2] = cecum, CECUM, 120 min, read-out: stability: percentage of material observed as intact prodrug, cecum
[3] = kidney, KIDNEY, 30 min, read-out: stability: percentage of material observed as intact prodrug, kidney
[4] = kidney, KIDNEY, 120 min, read-out: stability: percentage of material observed as intact prodrug, kidney
[5] = large intestine, LARGE INTESTINE, 30 min, read-out: stability: percentage of material observed as intact prodrug, large intestine
[6] = large intestine, LARGE INTESTINE, 120 min, read-out: stability: percentage of material observed as intact prodrug, large intestine
[7] = liver, LIVER, 30 min, read-out: stability: percentage of material observed as intact prodrug, liver (converted)
[8] = liver, LIVER, 120 min, read-out: stability: percentage of material observed as intact prodrug, liver
[9] = plasma, PLASMA, 30 min, read-out: stability: percentage of material observed as intact prodrug, plasma
[10] = plasma, PLASMA, 120 min, read-out: stability: percentage of material observed as intact prodrug, plasma
[11] = small intestine, SMALL INTESTINE, 30 min, read-out: stability: percentage of material observed as intact prodrug, small intestine
[12] = small intestine, SMALL INTESTINE, 120 min, read-out: stability: percentage of material observed as intact prodrug, small intestine
[13] = spleen, SPLEEN, 30 min, read-out: stability: percentage of material observed as intact prodrug, spleen
[14] = spleen, SPLEEN, 120 min, read-out: stability: percentage of material observed as intact prodrug, spleen
[15] = tumor, TUMOR, 30 min, read-out: stability: percentage of material observed as intact prodrug, tumor
[16] = tumor, TUMOR, 120 min, read-out: stability: percentage of material observed as intact prodrug, tumor

concentration of prodrug in cecum (CECUM, 30 min) [nmol/g] | concentration of prodrug in cecum (CECUM, 120 min) [nmol/g] | concentration of prodrug in kidney (KIDNEY, 30 min) [nmol/g] | concentration of prodrug in kidney (KIDNEY, 120 min) [nmol/g] | concentration of prodrug in large intestine (LARGE INTESTINE, 30 min) [nmol/g] | concentration of prodrug in large intestine (LARGE INTESTINE, 120 min) [nmol/g] | concentration of prodrug in liver (LIVER, 30 min) [nmol/g] | concentration of prodrug in liver (LIVER, 120 min) [nmol/g] | concentration of prodrug in small intestine (SMALL INTESTINE, 30 min) [nmol/g] | concentration of prodrug in small intestine (SMALL INTESTINE, 120 min) [nmol/g] | concentration of prodrug in spleen (SPLEEN, 30 min) [nmol/g] | concentration of prodrug in tumor (TUMOR, 30 min) [nmol/g] | concentration of prodrug in tumor (TUMOR, 120 min) [nmol/g] | remaining at 0.5 h [1] [%] | remaining at 2 h [2] [%] | remaining at 0.5 h [3] [%] | remaining at 2 h [4] [%] | remaining at 0.5 h [5] [%] | remaining at 2 h [6] [%] | remaining at 0.5 h [7] [%] | Structure (SMILES) | also measured
6.0 | 1.2 | 175.8 | 70.3 | 12.2 | 1.0 | 770.3 | 579.8 | 48.2 | 55.6 | 23.4 | 6.0 | 1.2 | 96 | 76 | 98 | 97 | 93 | 100 | 98 | Cc1nc2ccc3ccc(CNc4ccc(C(=O)N[C@@H](CCC(=O)O)C(=O)N[C@@H](CCC(=O)O)C(=O)O)c(F)c4)cc3c2c(=O)[nH]1 [Prodrug 1, N-(N-(4(((1,2-dihydro-3-methyl-1-oxobenzo(F)quinazolin-9-yl)methyl)amino)-2-fluorobenzoyl)-L-glutam-1-yl)-L-glutamic acid] | concentration of prodrug in spleen (SPLEEN, 120 min): 1.8 nmol/g; remaining at 2 h [8]: 97%; concentration at 0.5 h (plasma, PLASMA, 30 min): 41.5 µM; remaining at 0.5 h [9]: 99%; concentration at 2 h (plasma, PLASMA, 120 min): 4.2 µM; remaining at 2 h [10]: 100%; remaining at 0.5 h [11]: 83%; remaining at 2 h [12]: 68%; remaining at 0.5 h [13]: 100%; remaining at 2 h [14]: 100%; remaining at 0.5 h [15]: 96%; remaining at 2 h [16]: 76%
4.7 | 2.9 | 42.5 | 3.0 | 28.4 | 1.6 | 118.2 | 7.5 | 32.1 | 1.6 | 34.3 | 4.7 | 2.9 | 95 | 88 | 83 | 96 | 93 | 8 | 81 | Cc1nc2ccc3ccc(CNc4ccc(C(=O)N[C@@H](CCC(=O)O)C(=O)N[C@@H](Cc5ccccc5I)C(=O)O)c(F)c4)cc3c2c(=O)[nH]1 [Prodrug 5] | concentration of prodrug in spleen (SPLEEN, 120 min): 3.2 nmol/g; remaining at 2 h [8]: 41%; concentration at 0.5 h (plasma, PLASMA, 30 min): 115 µM; remaining at 0.5 h [9]: 98%; concentration at 2 h (plasma, PLASMA, 120 min): 9.4 µM; remaining at 2 h [10]: 95%; remaining at 0.5 h [11]: 40%; remaining at 2 h [12]: 2%; remaining at 0.5 h [13]: 85%; remaining at 2 h [14]: 81%; remaining at 0.5 h [15]: 95%; remaining at 2 h [16]: 88%
6.9 | 1.5 | 55.4 | 3.8 | 12.1 | 91.8 | 171.9 | 7.5 | 127.4 | 24.1 | 12.4 | 6.9 | 1.5 | 100 | 100 | 100 | 100 | 100 | 100 | 100 | CN(Cc1cnc2nc(N)nc(N)c2n1)c1ccc(C(=O)N[C@@H](CCC(=O)O)C(=O)N[C@@H](Cc2ccccc2C(=O)O)C(=O)O)cc1 [Prodrug 7] | concentration of prodrug in spleen (SPLEEN, 120 min): 1.0 nmol/g; remaining at 2 h [8]: 89%; concentration at 0.5 h (plasma, PLASMA, 30 min): 51.4 µM; remaining at 0.5 h [9]: 100%; concentration at 2 h (plasma, PLASMA, 120 min): 0.2 µM; remaining at 2 h [10]: 100%; remaining at 0.5 h [11]: 100%; remaining at 2 h [12]: 97%; remaining at 0.5 h [13]: 100%; remaining at 2 h [14]: 100%; remaining at 0.5 h [15]: 100%; remaining at 2 h [16]: 100%
6.7 | 1.3 | 94.5 | 14.5 | 25.3 | 45.4 | 343.4 | 33.3 | 188.1 | 69.1 | 30.9 | 6.7 | 1.3 | 100 | 100 | 100 | 99 | 100 | 100 | 99 | Cc1nc2ccc3ccc(CNc4ccc(C(=O)N[C@@H](CCC(=O)O)C(=O)N[C@@H](Cc5ccccc5C(=O)O)C(=O)O)c(F)c4)cc3c2c(=O)[nH]1 [Prodrug 4, N-(N-(4(((1,2-dihydro-3-methyl-1-oxobenzo(F)quinazolin-9-yl)methyl)amino)-2-fluorobenzoyl)-L-glutam-1-yl)-2-carboxy-L-phenylanine] | remaining at 2 h [8]: 98%; concentration at 0.5 h (plasma, PLASMA, 30 min): 71.4 µM; remaining at 0.5 h [9]: 100%; concentration at 2 h (plasma, PLASMA, 120 min): 1.4 µM; remaining at 2 h [10]: 99%; remaining at 0.5 h [11]: 99%; remaining at 2 h [12]: 98%; remaining at 0.5 h [13]: 99%; remaining at 0.5 h [15]: 100%; remaining at 2 h [16]: 100%
